# Experimental data: publication PMC9304322, “Targeting retinoic acid receptor alpha-corepressor interaction activates chaperone-mediated autophagy and protects against retinal degeneration” (Nature Communications, 2022)
# Where “and” joins values, the source holds several entries; their conditions need not be identical. Identical values can stand only once. Like-named read-outs stand apart in the source and are kept apart here.
# Assay: Pharmacokinetic analysis, plasma and brain;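 for Fig. 3a level, MEAN: plasma concentration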;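 for Fig. 3a level, single animals 1-3: plasma concentration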;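 for Fig. 3b level, MEAN: brain concentration in ng/g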;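 for Fig. 3b level, single animals 1-3: brain concentration in ng/g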
# Type: in vivo, ICR (CD-1) male mice
# Design: Fig. 3a level, single animals 1-3 / Fig. 3a level, MEAN / Fig. 3b level, single animals 1-3 / Fig. 3b level, MEAN: unit not given here
# Conditions: for Kp at 0.083 h / Kp at 0.25 h / Kp at 0.5 h / Kp at 1 h / Kp at 2 h / Kp at 4 h / Kp at 8 h / Kp at 24 h / half-life: male, ICR (CD-1), mouse; for half-life: mice
# Experimental: ICR (CD-1) male mice were fasted at least three hours and water was available ad libitum before the study. Animals were housed in a controlled environment, target conditions: temperature 18 to 29 °C, relative humidity 30 to 70%. Temperature and relative humidity was monitored daily. An electronic time-controlled lighting system was used to provide a 12 h light/12 h dark cycle. 3 mice for each indicated time point were administered 30 mg/Kg CA39 or CA77 by oral gavage or 1 mg/Kg CA39 or CA77 by intravenous injection using 30% PEG-400, 65% D5W (5% dextrose in water), 5% Tween-80 vehicle. Mice were sacrificed, and brain samples were harvested at […], 0.25 h, 0.5 h, 1 h, 2 h, 4 h, 8 h, 24 h, and analyzed for CA39 or CA77 levels using LC-MS/MS. Pharmacokinetics parameters were calculated using Phoenix WinNonlin 6.3. Experiments performed at SIMM-SERVIER joint Biopharmacy Laboratory.
smiles,measurement,setting,value
Clc1ccc2c(c1)OCC(c1ccc(-c3ccccc3)cc1)=N2 [CA39],"Fig. 3a level, MEAN","IV, Time 0.083 h",61.1254
same,"Fig. 3b level, MEAN","IV, Time 0.083 h",61.1254
same,"Fig. 3a level, MEAN","IV, Time 0.25 h",57.4762
same,"Fig. 3a level, single animals 1-3","IV, Time 0.25 h",71.3655 and 52.5276 and 48.5355
same,"Fig. 3b level, MEAN","IV, Time 0.25 h",421.667
same,"Fig. 3b level, single animals 1-3","IV, Time 0.25 h",231 and 301 and 733
same,"Fig. 3a level, MEAN","IV, Time 0.5 h",96.4163
same,"Fig. 3a level, single animals 1-3","IV, Time 0.5 h",97.156 and 95.5316 and 96.5614
same,"Fig. 3b level, single animals 1-3","IV, Time 0.5 h",253.229 and 219.924 and 96.4385
same,"Fig. 3a level, single animals 1-3","IV, Time 1 h",65.9772 and 7.434 and 72.9585
same,"Fig. 3b level, single animals 1-3","IV, Time 1 h",838.595 and 293.717 and 133.533
same,"Fig. 3a level, MEAN","IV, Time 2 h",127.026
same,"Fig. 3a level, single animals 1-3","IV, Time 2 h",125.63 and 157.282 and 98.1671
same,"Fig. 3b level, MEAN","IV, Time 2 h",775.11
same,"Fig. 3b level, single animals 1-3","IV, Time 2 h",875.96 and 812.85 and 636.52
same,"Fig. 3a level, MEAN","IV, Time 4 h",46.5654
same,"Fig. 3a level, single animals 1-3","IV, Time 4 h",39.4404 and 55.2956 and 44.9603
same,"Fig. 3b level, MEAN","IV, Time 4 h",580.088
same,"Fig. 3b level, single animals 1-3","IV, Time 4 h",625.12 and 582.925 and 532.22
same,"Fig. 3a level, single animals 1-3","IV, Time 8 h",53.1345 and 36.7923 and 35.4264
same,"Fig. 3b level, single animals 1-3","IV, Time 8 h",688.34 and 475.587 and 740.905
same,"Fig. 3a level, MEAN","IV, Time 24 h",8.834
same,"Fig. 3a level, single animals 1-3","IV, Time 24 h",7.122 and 12.7302 and 6.65
same,"Fig. 3b level, single animals 1-3","IV, Time 24 h",137.514 and 156.133 and 197.201
same,"B/P, Brian/Plasma","P.O., Time 0.25 h, individual animals",3.427 and 5.487
same,"B/P, Brian/Plasma","P.O., Time 0.5 h, individual animals",1.74 and 1.607
same,"B/P, Brian/Plasma","P.O., Time 1 h, individual animals",6.477 and 4.807
same,"B/P, Brian/Plasma","P.O., Time 2 h, individual animals",7.798 and 6.806
same,"B/P, Brian/Plasma","P.O., Time 4 h, individual animals",5.185 and 9.171 and 14.1075
same,"B/P, Brian/Plasma","P.O., Time 8 h, individual animals",9.709 and 14.5255
same,"B/P, Brian/Plasma","P.O., Time 24 h, individual animals",21.0683
same,"Fig. 3b level, MEAN","PO, Time 0.25 h",110.007
same,"Fig. 3b level, single animals 1-3","PO, Time 0.25 h",143.332 and 91.145 and 95.5425
same,"Fig. 3b level, MEAN","PO, Time 0.5 h",246.705
same,"Fig. 3b level, single animals 1-3","PO, Time 0.5 h",250.188 and 244.993 and 244.933
same,"Fig. 3b level, single animals 1-3","PO, Time 1 h",302.13 and 49.5585 and 266.305
same,"Fig. 3a level, MEAN","PO, Time 2 h",103.157
same,"Fig. 3a level, single animals 1-3","PO, Time 2 h",111.712 and 104.237 and 93.5216
same,"Fig. 3b level, MEAN","PO, Time 2 h",582.568
same,"Fig. 3b level, single animals 1-3","PO, Time 2 h",673.81 and 487.02 and 586.875
same,"Fig. 3a level, MEAN","PO, Time 4 h",73.9526
same,"Fig. 3a level, single animals 1-3","PO, Time 4 h",120.568 and 63.5639 and 37.7259
same,"Fig. 3b level, MEAN","PO, Time 4 h",609.462
same,"Fig. 3b level, single animals 1-3","PO, Time 4 h",583.44 and 598.755 and 646.19
same,"Fig. 3a level, single animals 1-3","PO, Time 8 h",41.4288 and 48.9846 and 51.0072
same,"Fig. 3b level, single animals 1-3","PO, Time 8 h",620.035 and 487.115 and 529.995
same,"Fig. 3a level, MEAN","PO, Time 24 h",11.2914
same,"Fig. 3a level, single animals 1-3","PO, Time 24 h",11.8674 and 7.411 and 14.5959
same,"Fig. 3b level, MEAN","PO, Time 24 h",118.958
same,"Fig. 3b level, single animals 1-3","PO, Time 24 h",104.574 and 178.19 and 74.11
same,"B/P, Brian/Plasma","i.v., Time 0.083 h, individual animals",1.236 and 1.666
same,"B/P, Brian/Plasma","i.v., Time 0.25 h, individual animals",1.735 and 1.969
same,"B/P, Brian/Plasma","i.v., Time 0.5 h, individual animals",2.565 and 2.537
same,"B/P, Brian/Plasma","i.v., Time 1 h, individual animals",6.667 and 3.6501
same,"B/P, Brian/Plasma","i.v., Time 2 h, individual animals",3.096 and 5.978
same,"B/P, Brian/Plasma","i.v., Time 4 h, individual animals",10.8283 and 14.3725
same,"B/P, Brian/Plasma","i.v., Time 8 h, individual animals",13.2396 and 14.9605
same,"B/P, Brian/Plasma","i.v., Time 24 h, individual animals",13.9974
same,Kp at 0.083 h,"brain, iv, 1 mg/Kg, i.v., Time 0.083 h, individual animals, read-out: B/P, Brian/Plasma",1.37
same,Kp at 0.083 h,"brain, iv, 1 mg/Kg, i.v., Time 0.083 h, mean, read-out: B/P, Brian/Plasma, Mean",1.42
same,Kp at 0.25 h,"brain, iv, 1 mg/Kg, i.v., Time 0.25 h, individual animals, read-out: B/P, Brian/Plasma",2.01
same,Kp at 0.25 h,"brain, iv, 1 mg/Kg, i.v., Time 0.25 h, mean, read-out: B/P, Brian/Plasma, Mean",1.9
same,Kp at 0.5 h,"brain, iv, 1 mg/Kg, i.v., Time 0.5 h, individual animals, read-out: B/P, Brian/Plasma",2.58
same,Kp at 0.5 h,"brain, iv, 1 mg/Kg, i.v., Time 0.5 h, mean, read-out: B/P, Brian/Plasma, Mean",2.56
same,Kp at 1 h,"brain, iv, 1 mg/Kg, i.v., Time 1 h, individual animals, read-out: B/P, Brian/Plasma",4.58
same,Kp at 1 h,"brain, iv, 1 mg/Kg, i.v., Time 1 h, mean, read-out: B/P, Brian/Plasma, Mean",4.11
same,Kp at 2 h,"brain, iv, 1 mg/Kg, i.v., Time 2 h, individual animals, read-out: B/P, Brian/Plasma",5.36
same,Kp at 2 h,"brain, iv, 1 mg/Kg, i.v., Time 2 h, mean, read-out: B/P, Brian/Plasma, Mean",4.81
same,Kp at 4 h,"brain, iv, 1 mg/Kg, i.v., Time 4 h, individual animals, read-out: B/P, Brian/Plasma",14.8
same,Kp at 4 h,"brain, iv, 1 mg/Kg, i.v., Time 4 h, mean, read-out: B/P, Brian/Plasma, Mean",13.3
same,Kp at 8 h,"brain, iv, 1 mg/Kg, i.v., Time 8 h, individual animals, read-out: B/P, Brian/Plasma",11.7
same,Kp at 8 h,"brain, iv, 1 mg/Kg, i.v., Time 8 h, mean, read-out: B/P, Brian/Plasma, Mean",13.3
same,Kp at 24 h,"brain, iv, 1 mg/Kg, i.v., Time 24 h, individual animals, read-out: B/P, Brian/Plasma",14.7
same,Kp at 24 h,"brain, iv, 1 mg/Kg, i.v., Time 24 h, mean, read-out: B/P, Brian/Plasma, Mean",14.2
same,Kp at 0.25 h,"brain, po, 30 mg/Kg, P.O., Time 0.25 h, individual animals, read-out: B/P, Brian/Plasma",4.01
same,Kp at 0.25 h,"brain, po, 30 mg/Kg, P.O., Time 0.25 h, mean, read-out: B/P, Brian/Plasma, Mean",4.31
same,Kp at 0.5 h,"brain, po, 30 mg/Kg, P.O., Time 0.5 h, individual animals, read-out: B/P, Brian/Plasma",1.82
same,Kp at 0.5 h,"brain, po, 30 mg/Kg, P.O., Time 0.5 h, mean, read-out: B/P, Brian/Plasma, Mean",1.72
same,Kp at 1 h,"brain, po, 30 mg/Kg, P.O., Time 1 h, individual animals, read-out: B/P, Brian/Plasma",5.37
same,Kp at 1 h,"brain, po, 30 mg/Kg, P.O., Time 1 h, mean, read-out: B/P, Brian/Plasma, Mean",5.55
same,Kp at 2 h,"brain, po, 30 mg/Kg, P.O., Time 2 h, individual animals, read-out: B/P, Brian/Plasma",7.84
same,Kp at 2 h,"brain, po, 30 mg/Kg, P.O., Time 2 h, mean, read-out: B/P, Brian/Plasma, Mean",7.48
same,Kp at 4 h,"brain, po, 30 mg/Kg, P.O., Time 4 h, mean, read-out: B/P, Brian/Plasma, Mean",9.49
same,Kp at 8 h,"brain, po, 30 mg/Kg, P.O., Time 8 h, individual animals, read-out: B/P, Brian/Plasma",16.6
same,Kp at 8 h,"brain, po, 30 mg/Kg, P.O., Time 8 h, mean, read-out: B/P, Brian/Plasma, Mean",13.6
same,Kp at 24 h,"brain, po, 30 mg/Kg, P.O., Time 24 h, individual animals, read-out: B/P, Brian/Plasma",11.6
same,Kp at 24 h,"brain, po, 30 mg/Kg, P.O., Time 24 h, mean, read-out: B/P, Brian/Plasma, Mean",17.9
same,half-life,"brain, IV 1 mg/kg, read-out: Half-life in brain (converted)",8 h
same,half-life,"brain, PO 30 mg/kg, read-out: Half-life in brain (converted)",10 h
same,half-life,"plasma, IV 1 mg/kg, read-out: Half-life in plasma (converted)",8.2 h
same,half-life,"plasma, PO 30 mg/kg, read-out: Half-life in plasma (converted)",7.5 h
